Consider 5 compounds from patent publication US5541189A, “Substituted aliphatic amine-containing macrocyclic immunomodulators” (Abbott Laboratories, priority 1995, dated 1996).

Test [1] deals with human mixed lymphocyte reaction (MLR). In words: human mixed lymphocyte reaction (MLR) assay, immunosuppressant activity. In kind it is cell-based. To be noted: in vitro. Here is the method: The immunosuppressant activity of the compounds of the present invention was determined using the human mixed lymphocyte reaction (MLR) assay described by Kino, T. et al. in Transplantation Proceedings XIX(5):36-39, Suppl. 6 (1987), incorporated herein by reference.

Another test relates to P-glycoprotein. The note with it: known; increasing sensitivity of multidrug resistant (MDR) cells to chemotherapeutic agents; cited from earlier work.

The term IC50 denotes the midpoint of a concentration-inhibition curve. Low values mean higher potency, high ones lower potency.

A value given as a limit tells only on which side of the number the result lay.

With `CC[C@@H]1/C=C(\C)C[C@H](C)C[C@H](OC)[C@H]2O[C@@](O)(C(=O)C(=O)N3CCCC[C@H]3C(=O)O[C@H](/C(C)=C/[C@@H]3CC[C@H](N(CC)CCN(CC)CC)[C@H](OC)C3)[C@H](C)[C@@H](O)CC1=O)[C@H](C)C[C@@H]2OC` [Example 29], the IC50 in test [1] is less than 1 µM. As for `C=CC[C@@H]1/C=C(\C)C[C@H](C)C[C@H](OC)[C@H]2O[C@@](O)(C(=O)C(=O)N3CCCC[C@H]3C(=O)O[C@H](/C(C)=C/[C@@H]3CC[C@@H](O)[C@H](OC)C3)[C@H](C)[C@@H](O)CC1=O)[C@H](C)C[C@@H]2OC` [FK-506], the “modulators of P-glycoprotein” value in the test on P-glycoprotein was “effective modulators of P-glycoprotein”. For `CC[C@@H]1/C=C(\C)C[C@H](C)C[C@H](OC)[C@H]2O[C@@](O)(C(=O)C(=O)N3CCCC[C@H]3C(=O)O[C@H](/C(C)=C/[C@@H]3CC[C@@H](NCCCN(C)C)[C@H](OC)C3)[C@H](C)[C@@H](O)CC1=O)[C@H](C)C[C@@H]2OC` [Example 47], in test [1], the IC50 is less than 1 µM. On the same count and under the same terms, in the case of `CC[C@@H]1/C=C(\C)C[C@H](C)C[C@H](OC)[C@H]2O[C@@](O)(C(=O)C(=O)N3CCCC[C@H]3C(=O)O[C@H](/C(C)=C/[C@@H]3CC[C@H](NCCN(CC)CC)[C@H](OC)C3)[C@H](C)[C@@H](O)CC1=O)[C@H](C)C[C@@H]2OC` [Example 13] it was less than 1 µM; in that of `CC[C@@H]1/C=C(\C)C[C@H](C)C[C@H](OC)[C@H]2O[C@@](O)(C(=O)C(=O)N3CCCC[C@H]3C(=O)O[C@H](/C(C)=C/[C@@H]3CC[C@H](NCCCN(C)C)[C@H](OC)C3)[C@H](C)[C@@H](O)CC1=O)[C@H](C)C[C@@H]2OC` [Example 7], less than 1 µM.
